Source: patent US9023789B2, “Amylin analogs and pharmaceutical compositions thereof” (Novo Nordisk A/S, priority 2012, dated 2015)
Numbered stars: 1 amine (or outer) side, 2 acyl side, 3 side chain; on linkers, the order of the positions; unused ones are H or OH. Bridge positions count the residues as written; N and C are the ends. Peptide text beside a SMILES is read from it. * marks the point of attachment. C20 diacid = O=C(O)CCCCCCCCCCCCCCCCCCC(=O)*; γGlu = O=C(O)[C@H](CCC(=O)[*:2])N[*:1]

Experiments:
[1] = target: T1, human amylin 3(a) receptor (human calcitonin receptor + RAMP-3) in BHK570 cells (Homo sapiens, UniProt O60896+P30988); experiment: ASSAY (II)a functional assay, human amylin receptor (CRE luciferase); format: cell-based; conditions: for EC50: human amylin receptor functional potency, assay (II), read-out: hAmylin-R funct. EC50
T1 construct: expressed in transfected cells
Outline: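 BHK CRE-luc cells, calcitonin (a) receptor ± RAMP-3 (amylin 3(a)); overnight seeding, 37° C/5% CO2. 3 h ligand exposure, DMEM/10% FBS/10 mM Hepes pH 7.4. LucLite 30 min RT; luminescence (SPC).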

[2] = target: T2, human calcitonin (a) receptor in BHK570 cells (Homo sapiens, UniProt P30988); experiment: ASSAY (II)a functional assay, human calcitonin receptor (CRE luciferase); format: cell-based; conditions: read-out: hCTR funct. EC50
T2 construct: expressed in transfected cells
T2 sequence (P30988 25-474): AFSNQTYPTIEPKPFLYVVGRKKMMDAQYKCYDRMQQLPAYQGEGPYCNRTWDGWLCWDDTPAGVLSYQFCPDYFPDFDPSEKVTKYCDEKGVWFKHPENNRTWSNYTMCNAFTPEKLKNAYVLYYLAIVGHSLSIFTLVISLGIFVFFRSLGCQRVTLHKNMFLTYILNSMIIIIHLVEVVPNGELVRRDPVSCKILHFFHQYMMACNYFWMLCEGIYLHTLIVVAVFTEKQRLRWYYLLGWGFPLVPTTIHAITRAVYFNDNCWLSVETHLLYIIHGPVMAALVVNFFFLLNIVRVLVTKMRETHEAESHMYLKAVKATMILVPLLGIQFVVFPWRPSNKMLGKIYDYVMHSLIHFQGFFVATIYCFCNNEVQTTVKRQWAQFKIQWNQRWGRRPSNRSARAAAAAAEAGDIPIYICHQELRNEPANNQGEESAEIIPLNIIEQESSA
Source text: 1. Luciferase Assay Outline
Activation of calcitonin and amylin (coexpression of calcitonin receptor and receptor activity modifying proteins (RAMP)) receptors lead to increased intracellular concentrations of cAMP. Consequently, transcription is activated by promoters containing multiple copies of the cAMP response element (CRE). It is thus possible to measure amylin activity by the use of a CRE luciferase reporter gene introduced into BHK cells also expressing calcitonin or amylin receptors.
2. Construction of Calcitonin (a)- and Amylin 3(a)-Receptor/CRE-Luc Cell Line.
The cell line was further transfected with RAMP-3, using standard methods. This turns the calcitonin receptor into an amylin 3(a) receptor. Methotrexate, Neomycin, and Hygromycin are selection markers for luciferase, the calcitonin receptor, and RAMP-3, respectively.
To perform activity assays, BHK calcitonin (a) receptor- or amylin 3(a)-receptor/CRE-luc cells were seeded in white 96 well culture plates at a density of about 20.000 cells/well. […] After incubation overnight at 37° C. and 5% CO2, the growth medium was replaced by 50 μl/well assay medium (DMEM (without phenol red), Glutamax™, 10% FBS, and 10 mM Hepes, pH 7.4). Further, 50 μl/well of standard or sample in assay buffer were added. After 3 hours incubation at 37° C. and 5% CO2, the assay medium with standard or sample were removed and replaced by 100 μl/well PBS. Further, 100 μl/well LucLite™ was added. The plates were sealed and incubated at room temperature for 30 minutes. Finally, luminescence was measured on a TopCounter (Packard) in SPC (single photon counting) mode.

[3] = target: T3, human calcitonin receptor (Homo sapiens, UniProt P30988); experiment: ASSAY (VII) binding to the human calcitonin receptor (SPA, 125I-Calcitonin); conditions: read-out: hCTR bind IC50;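 note: cell membranes (35 ng/µL) combined with SPA beads in 40 µL of pH 7.4 Hepes buffer, 384-well format, signal counted on a TopCounter instrument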
T3 construct: expressed in transfected cells
T3 sequence (P30988 25-474): T2 sequence (P30988 25-474)

[4] = target: T4, human amylin receptor (membranes from Amylin 3(a)/CRE-luc cells) (Homo sapiens, UniProt O60896+P30988); experiment: ASSAY (V) binding to the human amylin receptor (SPA, 125I-rat amylin); conditions: for IC50: Table 4, read-out: hAmylin-R bind IC50;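 for all read-outs here: competition binding of cell membranes (35 ng/µL) mixed with SPA beads in 384-well plates at 40 µL total volume, read by scintillation counting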
T4 construct: expressed in transfected cells
T4 sequence (P30988 25-474): T2 sequence (P30988 25-474)
T4 sequence (O60896 24-148 partner): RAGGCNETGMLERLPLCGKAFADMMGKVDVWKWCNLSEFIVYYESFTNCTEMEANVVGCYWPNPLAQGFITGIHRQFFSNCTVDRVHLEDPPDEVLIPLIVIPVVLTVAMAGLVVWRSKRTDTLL

[5] = target: T5, rat amylin receptor (rat calcitonin receptor + rat RAMP 3) (Rattus norvegicus, UniProt P32214+Q9JJ73); experiment: ASSAY (VI) binding to the rat amylin receptor; conditions: for IC50: binding to rat amylin receptor, read-out: rAmylin-R bind IC50
T5 construct: expressed in transfected cells; host or cells: BHK tk'ts 13 (transient, FuGENE 6), membranes
T5 sequence (P32214 25-479 isoform P32214-2 limits assumed): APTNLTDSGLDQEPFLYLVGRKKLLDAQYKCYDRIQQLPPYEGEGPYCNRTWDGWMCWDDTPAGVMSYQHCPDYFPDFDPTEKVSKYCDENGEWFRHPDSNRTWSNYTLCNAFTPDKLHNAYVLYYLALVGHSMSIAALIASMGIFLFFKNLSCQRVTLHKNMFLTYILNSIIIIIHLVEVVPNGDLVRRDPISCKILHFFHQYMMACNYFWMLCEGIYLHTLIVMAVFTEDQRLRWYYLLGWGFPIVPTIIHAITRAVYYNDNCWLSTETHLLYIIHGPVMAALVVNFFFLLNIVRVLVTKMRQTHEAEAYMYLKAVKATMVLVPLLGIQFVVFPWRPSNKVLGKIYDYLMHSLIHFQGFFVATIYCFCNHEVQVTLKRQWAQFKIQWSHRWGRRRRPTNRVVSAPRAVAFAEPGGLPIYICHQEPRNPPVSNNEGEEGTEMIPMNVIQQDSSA
T5 sequence (Q9JJ73 23-147 partner): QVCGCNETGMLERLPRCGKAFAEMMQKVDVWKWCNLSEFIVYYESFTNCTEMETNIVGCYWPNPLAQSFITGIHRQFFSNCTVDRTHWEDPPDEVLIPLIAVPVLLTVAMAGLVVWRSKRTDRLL
Outline: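 This assay measured binding to the rat amylin receptor. BHK tk′ts 13 cells were transiently transfected with the rat calcitonin receptor using FuGENE® 6 (Roche), following the manufacturer's recommendations. About 48 hours after transfection, the cells were harvested and membranes were prepared from them for the binding determination.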

rat calcitonin receptor = target: T6, rat calcitonin receptor (Rattus norvegicus, UniProt P32214); experiment: ASSAY (VIII) binding to the rat calcitonin receptor; conditions: Table 7, read-out: rCTR bind IC50
T6 construct: expressed in transfected cells; host or cells: BHK tk'ts 13 (transient, FuGENE 6), membranes
T6 sequence (P32214 25-479 isoform P32214-2 limits assumed): T5 sequence (P32214 25-479 isoform P32214-2 limits assumed)
Experimental: Assay (VIII)—Determination of Binding to the Rat Calcitonin Receptor
The BHK tk′ts 13 cells were transiently transfected with rat calcitonin receptor using FuGENE® 6 (Roche), according to the manufacturer's recommendations. Cells were grown in DMEM with 10% FBS and 1% Pen/Strep. Approximately 48 hours after transfection, the cells were harvested and membranes were prepared.

[6] = hCTR funct. EC50 over hAmylin-R funct. EC50
[7] = human functional selectivity: hCTR funct. EC50 / hAmylin-R funct. EC50
[8] = Table 5, selectivity, hCTR bind IC50 / hAmylin-R bind IC50
[9] = Table 5a, selectivity, hCTR bind IC50 / hAmylin-R bind IC50
[10] = Table 5b, selectivity, hCTR bind IC50 / hAmylin-R bind IC50
[11] = Table 7, human binding selectivity, included for comparison
[12] = Table 7a (preferred compounds), human binding selectivity, included for comparison
[13] = ratio of human calcitonin receptor binding IC50 to human amylin receptor binding IC50
[14] = Table 7, rat binding selectivity, rCTR IC50 / rAmylin-R IC50
[15] = Table 7a (preferred compounds), rat binding selectivity, rCTR IC50 / rAmylin-R IC50
[16] = ratio of rCTR bind IC50 to rAmylin-R bind IC50

Row | Ratio hCT/hAmylin funct. [1, 6] | EC50 [1] | Ratio hCT/hAmylin funct. [1, 7] | EC50 [2] | IC50 [3] | IC50 [4] | Ratio hCT/hAmylin binding [4, 8] | Ratio hCT/hAmylin binding [4, 9] | Ratio hCT/hAmylin binding [4, 10] | Ratio hCT/hAmylin binding ([4]; Table 5c, selectivity, hCTR bind IC50 / hAmylin-R bind IC50) | Ratio hCT/hAmylin binding [4, 11] | Ratio hCT/hAmylin binding [4, 12] | Ratio hCT/hAmylin binding [4, 13] | IC50 ([5]; Table 7) | Ratio rCT/rAmylin binding [5, 14] | Ratio rCT/rAmylin binding [5, 15] | Ratio rCT/rAmylin binding [5, 16] | IC50 (rat calcitonin receptor) | SMILES
1 | 5.7 | 0.128 nM | 5.7 | 0.729 nM | 19.9 nM | 0.996 nM | 20.0 | 20.0 | 20.0 | 20.0 | 20.0 | 20.0 | 20.0 | 2.37 nM | 21.7 | 21.7 | 21.7 | 51.6 nM | CC[C@H](C)[C@H](NC(=O)[C@@H]1CCCN1C(=O)CNC(=O)[C@H](Cc1ccccc1)NC(=O)[C@H](CC(N)=O)NC(=O)[C@@H]1CCCN1C(=O)[C@H](CO)NC(=O)[C@H](CO)NC(=O)[C@H](Cc1c[nH]cn1)NC(=O)[C@H](CCCNC(=N)N)NC(=O)[C@H](CC(C)C)NC(=O)[C@H](Cc1ccccc1)NC(=O)[C@H](CCC(=O)O)NC(=O)[C@H](C)NC(=O)[C@H](CC(C)C)NC(=O)[C@H](CCCNC(=N)N)NC(=O)[C@H](CCC(N)=O)NC(=O)[C@@H](NC(=O)[C@H](C)NC(=O)[C@@H]1CSSC[C@H](NC(=O)[C@H](CCCCN)NC(=O)CC[C@H](NC(=O)CCCCCCCCCCCCCCCCCCC(=O)O)C(=O)O)C(=O)N[C@@H](CC(N)=O)C(=O)N[C@@H]([C@@H](C)O)C(=O)N[C@@H](C)C(=O)N[C@@H]([C@@H](C)O)C(=O)N1)[C@@H](C)O)C(=O)N[C@@H](CC(C)C)C(=O)N1CCC[C@H]1C(=O)N1CCC[C@H]1C(=O)N[C@H](C(=O)N[C@@H](CC(N)=O)C(=O)N[C@H](C(=O)NCC(=O)N[C@@H](CO)C(=O)N[C@@H](CC(N)=O)C(=O)N[C@H](C(=O)N[C@@H](Cc1ccc(O)cc1)C(N)=O)[C@@H](C)O)C(C)C)[C@@H](C)O [Example 6] ({C20 diacid-γGlu}-KCNTATCATQRLAEFLRHSSPNFGPILPPTNVGSNTY-NH2; disulfide 2-7)
2 | 4.5 | 0.255 nM | 4.5 | 1.16 nM | 11.1 nM | 0.674 nM | 16.5 | 16.5 | 16.5 | – | 16.5 | 16.5 | 16.5 | 1.12 nM | 42.0 | 42.0 | 42.0 | 47.2 nM | CC(C)C[C@H](NC(=O)[C@H](CCCNC(=N)N)NC(=O)[C@H](CCC(N)=O)NC(=O)[C@@H](NC(=O)[C@H](C)NC(=O)[C@@H]1CSSC[C@H](NC(=O)[C@H](CCCCN)NC(=O)CC[C@H](NC(=O)CCCCCCCCCCCCCCCCCCC(=O)O)C(=O)O)C(=O)N[C@@H](CC(N)=O)C(=O)N[C@@H]([C@@H](C)O)C(=O)N[C@@H](C)C(=O)N[C@@H]([C@@H](C)O)C(=O)N1)[C@@H](C)O)C(=O)N[C@@H](C)C(=O)N[C@@H](CCC(=O)O)C(=O)N[C@@H](Cc1ccccc1)C(=O)N[C@@H](CC(C)C)C(=O)N[C@@H](CCCNC(=N)N)C(=O)N[C@@H](Cc1c[nH]cn1)C(=O)N[C@@H](CO)C(=O)N[C@@H](CO)C(=O)N1CCC[C@H]1C(=O)N[C@@H](CC(N)=O)C(=O)N[C@@H](Cc1ccccc1)C(=O)NCC(=O)N[C@@H](C)C(=O)N1CCC[C@H]1C(=O)N[C@@H](CC(C)C)C(=O)N[C@@H](CO)C(=O)N[C@@H](CO)C(=O)N[C@H](C(=O)N[C@@H](CC(N)=O)C(=O)N[C@H](C(=O)NCC(=O)N[C@@H](CO)C(=O)N[C@@H](CC(N)=O)C(=O)N[C@H](C(=O)N[C@@H](Cc1ccc(O)cc1)C(N)=O)[C@@H](C)O)C(C)C)[C@@H](C)O [Example 7] ({C20 diacid-γGlu}-KCNTATCATQRLAEFLRHSSPNFGAPLSSTNVGSNTY-NH2; disulfide 2-7)
